Measurements as given in PMC12348863 (Molecules, 2025).

Legend:
[1] = In vitro permeation (PAMPA) test; format: in vitro ADME; conditions: 159 µM CBD
Protocol: In vitro permeation (PAMPA) tests were performed to evaluate differences in permeation parameters between regular (lipophilic) CBD and the water-soluble CBD complex. Atenolol and metoprolol were included as control substances. The initial concentration of CBD in the donor medium was 159 µM, while the concentrations of atenolol and metoprolol were 500 µM each. The experiments were conducted using a 96-well PAMPA plate with PVDF filter membranes (Sigma-Aldrich). The donor medium consisted of 50 mM phosphate buffer (pH 6.5, Sigma-Aldrich) containing 5% (v/v) DMSO, with a volume of 300 µL per well. The acceptor medium used was Pion’s “acceptor sink buffer” (Billerica, MA, USA), added in a volume of 200 µL per well. The artificial membrane solution consisted of 1% (w/v) cholesterol (Merck, Darmstadt, Germany) dissolved in a 3:1 (v/v) mixture of dodecane and n-hexane. Prior to the experiment, 4 µL of this membrane solution was applied to each filter membrane. Each test compound was assessed in 12 replicates. The total duration of the experiment was 260 min. […] At the end of this experiment, both donor and acceptor solutions were analysed by HPLC. CBD concentrations were determined using HPLC with UV detection, according to the method described by Križman [39] […] Atenolol and metoprolol concentrations were analysed by HPLC with FL detection, following the protocol of Yilmaz et al. [40] […]

[2] = unformulated CBD; cited from earlier work
[3] = Water solubility analysis (dissolved CBD in deionised water, HPLC); format: physicochemical
Protocol: The prepared CBD-GA complexes, in various molar ratios, were tested for water solubility. In a typical experiment, between 1.0 and 1.5 mg of the complex was accurately weighed and dissolved in 1 mL of deionised water (Merck Millipore, Burlington, MA, USA) under vigorous mixing. If necessary, an ultrasonic bath was employed to aid dissolution.
Following mixing, the solution was centrifuged for 3 min at 3000× g. The resulting supernatant was transferred to vials for HPLC analysis. The concentration of dissolved CBD was quantified using a chromatographic method with an Agilent 1260 Infinity HPLC system (Waldbronn, Germany). Further details are provided in Appendix A.4.
The concentration of CBD in dissolution and permeation test samples was assayed using an Agilent 1260 Infinity system with UV detection. The column in use was Luna C18(2) (Phenomenex, Torrance, CA, USA), with dimensions 150 mm × 3 mm, 3 µm particle size. The column flow rate was 0.8 mL/min at 37 °C. The elution was isocratic, with the mobile phase consisting of acetonitrile–water at a ratio of 31:9 (v/v), with 10 mM ammonium formate and 0.1% (v/v) formic acid added (without pH adjustment). The injection volume was 5 µL, and the run time was 5 min. The UV detector wavelength was set at 275 nm.

Q: With `C=C(C)[C@@H]1CCC(C)=C[C@H]1c1c(O)cc(CCCCC)cc1O` [pure CBD, Cannabidiol] as the compound, how does the Papp at 260 min, 159 µM ([1]; donor 50 mM phosphate buffer pH 6.5 with 5% DMSO, 12 replicates, read-out: average permeability) read?
A: Its Papp at 260 min, 159 µM is 1.98 ×10⁻⁶ cm/s.

Q: What about the “mass retention in the lipophilic membrane” value ([1]; donor pH 6.5 with 5% DMSO, 260 min, average) of the same compound?
A: Its value is 84%.

Q: What about the aqueous solubility [2] of the same compound?
A: Its aqueous solubility is “less than 60 ng/mL”.

Q: And the solubility ([3]; deionised water, supernatant after centrifugation, HPLC, read-out: CBD Concentration (water solubility))?
A: The solubility was less than 0.06 µg/mL.

Q: And the “aqueous solubility, times lower than that of the water-soluble CBD complex” value ([3]; unformulated CBD versus water-soluble CBD complex)?
A: Its value is “more than 400 times”.
